{
  "source": "patent US20220347175A1",
  "about": "“PYRIDAZINONE DERIVATIVE” (Sumitomo Dainippon Pharma Co., Ltd., priority 2018, published 2022)",
  "key": {"[1]": {"biological_target": "T1, human Nav1.1 (Homo sapiens, UniProt P35498)", "T1 construct": "host or cells: HEK293", "experiment": "Amplification of Nav1.1-derived voltage-dependent sodium current (Nav1.1 current), cell line stably expressing human Nav1.1, automated patch clamp", "type": "cell-based", "procedure,_shortened": "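Automated whole-cell voltage-clamp recordings used HEK293 cells stably expressing human Nav1.1, keeping only cells with >500 pA current, with currents evoked by ramp voltage. Compounds were applied in extracellular fluid with 1% DMSO, and amplification (%) was computed from peak current or AUC after versus before addition.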"}, "[2]": {"biological_target": "T2, human Nav1.5 (Homo sapiens, UniProt Q14524)", "T2 construct": "expressed in transfected cells; host or cells: CHO-K1 (T-REx System, ThermoFisher Scientific)", "T2 sequence (Q14524 1-2015 isoform Q14524-2)": "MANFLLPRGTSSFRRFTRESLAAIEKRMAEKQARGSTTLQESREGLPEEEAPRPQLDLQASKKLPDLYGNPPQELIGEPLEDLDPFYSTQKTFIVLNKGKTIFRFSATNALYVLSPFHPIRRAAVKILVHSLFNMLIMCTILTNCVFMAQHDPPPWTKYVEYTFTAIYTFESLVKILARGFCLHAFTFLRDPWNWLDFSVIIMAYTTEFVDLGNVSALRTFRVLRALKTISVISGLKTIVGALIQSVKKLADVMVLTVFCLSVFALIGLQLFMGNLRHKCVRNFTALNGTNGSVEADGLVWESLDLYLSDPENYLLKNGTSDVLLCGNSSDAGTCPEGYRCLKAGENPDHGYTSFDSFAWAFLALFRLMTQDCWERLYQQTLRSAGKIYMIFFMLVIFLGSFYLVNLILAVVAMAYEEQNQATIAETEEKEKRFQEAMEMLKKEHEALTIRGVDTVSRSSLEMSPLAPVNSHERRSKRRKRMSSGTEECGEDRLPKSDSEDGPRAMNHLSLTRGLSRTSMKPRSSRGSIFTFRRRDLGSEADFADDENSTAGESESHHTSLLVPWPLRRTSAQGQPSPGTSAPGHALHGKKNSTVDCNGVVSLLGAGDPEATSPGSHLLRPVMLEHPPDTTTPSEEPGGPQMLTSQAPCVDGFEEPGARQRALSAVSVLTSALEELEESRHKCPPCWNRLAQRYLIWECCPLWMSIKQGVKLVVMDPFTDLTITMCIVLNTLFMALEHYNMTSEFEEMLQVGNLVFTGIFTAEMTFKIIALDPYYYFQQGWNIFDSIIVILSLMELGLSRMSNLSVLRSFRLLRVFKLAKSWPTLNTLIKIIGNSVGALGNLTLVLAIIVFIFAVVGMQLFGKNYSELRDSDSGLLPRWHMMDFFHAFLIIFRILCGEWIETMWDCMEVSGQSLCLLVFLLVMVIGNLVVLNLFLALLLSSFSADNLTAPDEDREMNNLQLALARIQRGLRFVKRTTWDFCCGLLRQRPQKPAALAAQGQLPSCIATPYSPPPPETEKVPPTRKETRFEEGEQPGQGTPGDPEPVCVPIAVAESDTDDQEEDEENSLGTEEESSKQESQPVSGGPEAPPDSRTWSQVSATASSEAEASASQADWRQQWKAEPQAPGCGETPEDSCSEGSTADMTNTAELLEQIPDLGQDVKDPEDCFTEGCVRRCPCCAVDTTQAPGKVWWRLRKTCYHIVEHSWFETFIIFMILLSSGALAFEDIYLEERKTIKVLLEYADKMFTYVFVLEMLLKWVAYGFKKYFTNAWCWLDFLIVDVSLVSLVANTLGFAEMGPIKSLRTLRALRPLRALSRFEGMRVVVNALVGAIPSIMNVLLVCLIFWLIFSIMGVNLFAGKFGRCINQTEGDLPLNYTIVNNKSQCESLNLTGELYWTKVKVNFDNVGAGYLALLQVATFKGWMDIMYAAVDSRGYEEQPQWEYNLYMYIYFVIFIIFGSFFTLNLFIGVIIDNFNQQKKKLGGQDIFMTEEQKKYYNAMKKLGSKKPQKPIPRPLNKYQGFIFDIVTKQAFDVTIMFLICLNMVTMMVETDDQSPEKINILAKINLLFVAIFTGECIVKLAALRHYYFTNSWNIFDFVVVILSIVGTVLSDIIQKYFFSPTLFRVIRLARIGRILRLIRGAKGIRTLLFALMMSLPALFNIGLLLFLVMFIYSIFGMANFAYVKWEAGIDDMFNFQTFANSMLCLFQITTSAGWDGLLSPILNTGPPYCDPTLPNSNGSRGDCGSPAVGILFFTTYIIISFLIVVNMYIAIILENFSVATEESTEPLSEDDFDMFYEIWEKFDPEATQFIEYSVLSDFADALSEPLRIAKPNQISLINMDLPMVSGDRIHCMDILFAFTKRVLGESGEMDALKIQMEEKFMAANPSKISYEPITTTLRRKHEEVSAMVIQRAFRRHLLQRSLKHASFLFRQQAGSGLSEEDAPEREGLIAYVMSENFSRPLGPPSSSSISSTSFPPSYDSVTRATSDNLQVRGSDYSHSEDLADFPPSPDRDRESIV", "experiment": "Amplification of Nav1.5-derived voltage-dependent sodium current (Nav1.5 current), cell line stably expressing human Nav1.5, automated patch clamp", "type": "cell-based"}, "[3]": {"conditions": "10 μmol/L compound, change of the area under the curve of Nav1.1 current (Test Result 1)"}, "[4]": {"conditions": "10 μmol/L compound, change of the area under the curve of Nav1.5 current (Test Result 1)"}, "[5]": {"conditions": "compound 3 μmol/L, HEK293 stably expressing human Nav1.1"}, "[6]": {"conditions": "compound 3 μmol/L, CHO-K1 stably expressing human Nav1.5"}, "[7]": {"conditions": "10 μmol/L compound, change of the area under the curve of Nav1.1 current (Test Result 1), read-out: Nav1.1 current amplification rate (%)"}, "[8]": {"conditions": "10 μmol/L compound, change of the area under the curve of Nav1.5 current (Test Result 1), read-out: Nav1.5 current amplification rate (%)"}},
  "data": [
    {"smiles": "CC1CCN(c2ccc(=O)n(CC(=O)Nc3cccc(-c4ncco4)c3)n2)CC1", "note": "[Example 78]", "values": [
      {"measurement": "Nav1.1 current amplification rate (%)", "setting": "[1]; [3]", "result": 78, "unit": "%"},
      {"measurement": "Nav1.5 current amplification rate (%)", "setting": "[2]; [4]", "result": 4, "unit": "%"}
    ]},
    {"smiles": "CC1CC=C(c2ccc(=O)n(CC(=O)N3CCC(c4ccncc4)CC3)n2)CC1", "note": "(racemic) [Example 259]", "values": [
      {"measurement": "Nav1.1 current amplification rate (%)", "setting": "[1]; [3]", "result": 71, "unit": "%"},
      {"measurement": "Nav1.5 current amplification rate (%)", "setting": "[2]; [4]", "result": 2, "unit": "%"}
    ]},
    {"smiles": "CC1CC=C(c2ccc(=O)n(CC(=O)N3CCc4c(C5=CCN(C)C5)cccc43)n2)CC1", "note": "(racemic) [Example 267]", "values": [
      {"measurement": "Nav1.1 current amplification rate (%)", "setting": "[1]; [5]", "result": 231, "unit": "%"},
      {"measurement": "Nav1.5 current amplification rate (%)", "setting": "[2]; [6]", "result": 79, "unit": "%"}
    ]},
    {"smiles": "Cc1cc(N2CCC3(CCCC3)C2)nn(CC(=O)Nc2ccc3ocnc3c2)c1=O", "note": "[Example 193]", "values": [
      {"measurement": "activation at 10 µM", "setting": "[1]; [7]", "result": 219, "unit": "%"},
      {"measurement": "activation at 10 µM", "setting": "[2]; [8]", "result": 0, "unit": "%"}
    ]},
    {"smiles": "COc1ccc2c(c1)CCN2C(=O)Cn1nc(N2CCC3(CCC3)C2)ccc1=O", "note": "[Example 187]", "values": [
      {"measurement": "activation at 10 µM", "setting": "[1]; [7]", "result": 37, "unit": "%"},
      {"measurement": "activation at 10 µM", "setting": "[2]; [8]", "result": 17, "unit": "%"}
    ]},
    {"smiles": "CC1CC=C(c2ccc(=O)n(CC(=O)N3CCc4c(C5CN(C6COC6)C5)cccc43)n2)CC1", "note": "(racemic) [Example 301]", "values": [
      {"measurement": "Nav1.1 current amplification rate (%)", "setting": "[1]; [5]", "result": 410, "unit": "%"},
      {"measurement": "Nav1.5 current amplification rate (%)", "setting": "[2]; [6]", "result": 55, "unit": "%"}
    ]},
    {"smiles": "COc1cc(=O)n(CC(=O)Nc2ccc3ocnc3c2)nc1C1=CCC(C(F)(F)F)CC1", "note": "(stereo not shown) [Example 450]", "values": [
      {"measurement": "Nav1.1 current amplification rate (%)", "setting": "[1]; [3]", "result": 187, "unit": "%"},
      {"measurement": "Nav1.5 current amplification rate (%)", "setting": "[2]; [4]", "result": 5, "unit": "%"}
    ]},
    {"smiles": "COc1nc2cc(NC(=O)Cn3nc(C4=CCC(C)(C)CC4)c(OC)cc3=O)ccc2o1", "note": "[Example 491]", "values": [
      {"measurement": "activation at 3 µM", "setting": "[1]; compound 3 μmol/L, HEK293 stably expressing human Nav1.1, read-out: Nav1.1 current amplification rate (%)", "result": 157, "unit": "%"},
      {"measurement": "activation at 3 µM", "setting": "[2]; compound 3 μmol/L, CHO-K1 stably expressing human Nav1.5, read-out: Nav1.5 current amplification rate (%)", "result": 22, "unit": "%"}
    ]},
    {"smiles": "CC1CCN(c2ccc(=O)n(CC(=O)N3CCc4cc(N5CCOCC5)ccc43)n2)CC1", "note": "[Example 89]", "values": [
      {"measurement": "Nav1.1 current amplification rate (%)", "setting": "[1]; [3]", "result": 187, "unit": "%"},
      {"measurement": "Nav1.5 current amplification rate (%)", "setting": "[2]; [4]", "result": 34, "unit": "%"}
    ]},
    {"smiles": "COc1cc(N2CCC(C)(C)CC2)nn(CC(=O)Nc2ccn3ccnc3c2)c1=O", "note": "[Example 212]", "values": [
      {"measurement": "activation at 10 µM", "setting": "[1]; [7]", "result": 74, "unit": "%"},
      {"measurement": "activation at 10 µM", "setting": "[2]; [8]", "result": 3, "unit": "%"}
    ]},
    {"smiles": "O=C(Cn1nc(C2=CCC(F)(F)CC2)ccc1=O)N1CCc2c(N3CCOCC3)cccc21", "note": "[Example 469]", "values": [
      {"measurement": "Nav1.1 current amplification rate (%)", "setting": "[1]; [3]", "result": 243, "unit": "%"},
      {"measurement": "Nav1.5 current amplification rate (%)", "setting": "[2]; [4]", "result": 25, "unit": "%"}
    ]},
    {"smiles": "CC1(C)CCC=C(c2ccc(=O)n(CC(=O)Nc3ccc4ocnc4c3)n2)C1", "note": "[Example 129]", "values": [
      {"measurement": "activation at 10 µM", "setting": "[1]; [7]", "result": 314, "unit": "%"},
      {"measurement": "activation at 10 µM", "setting": "[2]; [8]", "result": 25, "unit": "%"}
    ]},
    {"smiles": "Cc1ccc(-c2ccc(=O)n(CC(=O)Nc3ccc4ocnc4c3)n2)s1", "note": "[Example 455]", "values": [
      {"measurement": "Nav1.1 current amplification rate (%)", "setting": "[1]; [3]", "result": 131, "unit": "%"},
      {"measurement": "Nav1.5 current amplification rate (%)", "setting": "[2]; [4]", "result": 21, "unit": "%"}
    ]},
    {"smiles": "CCc1nc2cc(NC(=O)Cn3nc(N4CCC(C)CC4)ccc3=O)ccc2o1", "note": "[Example 97]", "values": [
      {"measurement": "Nav1.1 current amplification rate (%)", "setting": "[1]; [3]", "result": 296, "unit": "%"},
      {"measurement": "Nav1.5 current amplification rate (%)", "setting": "[2]; [4]", "result": 19, "unit": "%"}
    ]},
    {"smiles": "CC1CC=C(c2ccc(=O)n(CC(=O)Nc3ccc4nccn4n3)n2)CC1", "note": "(racemic) [Example 346]", "values": [
      {"measurement": "Nav1.1 current amplification rate (%)", "setting": "[1]; compound 1 μmol/L, HEK293 stably expressing human Nav1.1", "result": 96, "unit": "%"},
      {"measurement": "Nav1.5 current amplification rate (%)", "setting": "[2]; compound 1 μmol/L, CHO-K1 stably expressing human Nav1.5", "result": 27, "unit": "%"}
    ]},
    {"smiles": "CC1(C)CC=C(c2ccc(=O)n(CC(=O)Nc3ccn4ccnc4c3)n2)C1", "note": "[Example 465]", "values": [
      {"measurement": "Nav1.1 current amplification rate (%)", "setting": "[1]; [3]", "result": 186, "unit": "%"},
      {"measurement": "Nav1.5 current amplification rate (%)", "setting": "[2]; [4]", "result": 8, "unit": "%"}
    ]},
    {"smiles": "CC1CC=C(c2ccc(=O)n(CC(=O)N3CCc4c(C5CCNC5)cccc43)n2)CC1", "note": "(mixture of isomers) [Example 268]", "values": [
      {"measurement": "Nav1.1 current amplification rate (%)", "setting": "[1]; [5]", "result": 55, "unit": "%"},
      {"measurement": "Nav1.5 current amplification rate (%)", "setting": "[2]; [6]", "result": 22, "unit": "%"}
    ]},
    {"smiles": "CC1CC=C(c2ccc(=O)n(CC(=O)N3CCc4c(C5CN(C6CCOC6)C5)cccc43)n2)CC1", "note": "(racemic) [Example 305]", "values": [
      {"measurement": "Nav1.1 current amplification rate (%)", "setting": "[1]; [5]", "result": 314, "unit": "%"},
      {"measurement": "Nav1.5 current amplification rate (%)", "setting": "[2]; [6]", "result": 117, "unit": "%"}
    ]},
    {"smiles": "CC1CC=C(c2ccc(=O)n(CC(=O)Nc3ccn4cc(C(F)(F)F)nc4c3)n2)CC1", "note": "(stereo not shown) [Example 421]", "values": [
      {"measurement": "Nav1.1 current amplification rate (%)", "setting": "[1]; [3]", "result": 199, "unit": "%"},
      {"measurement": "Nav1.5 current amplification rate (%)", "setting": "[2]; [4]", "result": 34, "unit": "%"}
    ]},
    {"smiles": "O=C(Cn1nc(N2CCC3(CCC3)C2)c(N2CCCC2)cc1=O)Nc1ccc2ocnc2c1", "note": "[Example 208]", "values": [
      {"measurement": "activation at 10 µM", "setting": "[1]; [7]", "result": 200, "unit": "%"},
      {"measurement": "activation at 10 µM", "setting": "[2]; [8]", "result": 18, "unit": "%"}
    ]}
  ]
}
